Laboratory results reported in patent publication US20060019907A1, “Guggulsterone: an inhibitor of nuclear factor - kappaB and IkappaBalpha kinase activation and uses thereof” (Research Development Foundation, priority 2004, published 2006).

Experiments:
[1] = system: IKK; experiment: TNF-induced IKK activation, immune complex kinase assay; format: cell-based, human; details: H1299
Method: IKK Assay: To determine the effect of guggulsterone on TNF-induced IKK activation, IKK was analyzed by a method essentially as described previously (Shishodia et al., 2003). Briefly, IKK complex was precipitated from whole-cell extracts with antibody to IKKα and IKKβ, assayed in kinase assay using GST-IκBα (1-54) as a substrate, and resolved on 10% polyacrylamide gel; the radioactive bands were visualized using a PHOSPHORIMAGER™. To determine the total amounts of IKKα and IKKβ in each sample, 30 μg of the whole-cell extract protein was resolved on a 7.5% polyacrylamide gel and analyzed by Western blot using antibody against IKKα and IKKβ.

[2] = system: COX-2, MMP-9, VEGF, cyclin D1, c-myc, cIAP1, xIAP, Bfl-1, BCL-2, TRAF1, cFLIP, survivin; experiment: TNF-induced expression of NF-κB regulated gene products, Western blot; format: cell-based, human; details: H1299, 50 μM, 0.1 nM TNF
Method: Western Blot Analysis: To determine the effect of guggulsterone on TNF-dependent IκBα phosphorylation, IκBα degradation, p65 translocation and p65 phosphorylation, cytoplasmic extracts were prepared as previously described (Majumdar et al., 2001) from H1299 (2×10^6/ml) pretreated with 50 μM guggulsterone for 4 h and then exposed to 0.1 nM TNF for various times. Thirty micrograms of cytoplasmic protein was resolved on 10% SDS-PAGE gel, transferred to a nitrocellulose membrane, blocked with 5% non-fat milk, and probed with specific antibody against IκBα, posphorylated IκBα, p65 and phosphorylated p65. To determine the expression of cyclin D1, COX-2, MMP-9, clAP-1, xlAP, TRAF1, Bcl-2, Bfl-1, cFLIP, and survivin, whole-cell extracts were prepared from treated cells (2×10^6 cells in 2 ml medium), 30-50 μg protein was resolved on SDS-PAGE gel and probed by Western blot with specific antibodies as per manufacturer's recommended protocol. The blots were washed, exposed to HRP-conjugated secondary antibodies for 1 hour, and finally detected by ECL reagent (Amersham Pharmacia Biotech.). The bands were quantitated using a Personal Densitometer Scan v1.30 using IMAGEQUANT™ software version 3.3 (Molecular Dynamics).

[3] = system: NF-κB; experiment: NF-κB-dependent reporter gene (SEAP) transcription; format: cell-based, human
Method: NF-κB-dependent Reporter Gene Transcription: The effect of guggulsterone on TNF-induced NF-κB dependent reporter gene transcription was measured as previously described (Manna et al., 2000). Briefly, H1299 cells (5×10^5 cells/well) were plated in six-well plates and transiently transfected the next day by LIPOFECTAMINETM 2000 method with pNF-κB-SEAP using the manufacturer's protocol. To examine TNF-induced reporter gene expression, cells was transfected with 2 μg of the SEAP expression plasmid. After 18 hours, medium was removed, cells were rinsed and treated with various doses of guggulsterone for 4 hours and then treated with TNF. Twenty four hours later, the cell culture medium was harvested and analyzed for alkaline phosphatase (SEAP) activity essentially according to the protocol described by the manufacturer (Clontech, Palo Alto, Calif.) using a 96-well fluorescence plate reader ([…]; Labsystems, Chicago, Ill.) with excitation set at 360 nm and emission set at 460 nm.

[4] = system: RAW 264.7 cells; experiment: Osteoclast differentiation assay, RANKL-induced; format: cell-based, mouse; details: RANKL 5 nM
Method: (§1) Osteoclast differentiation assay: […] cells were cultured in 24-well dishes at a density of 1×10^4 cells per well and were allowed to adhere overnight. Medium was then replaced and the cells were treated with 5 nM (˜100 ng/ml) RANKL. At different days, cultures were stained for TRAP expression using an acid phosphatase kit, and the total number of TRAP-positive multinucleated osteoclasts (>3 nuclei) per well were counted.
as §1, with “assay.” for “assay:”, “(100” for “(˜100”, “day 5,” for “different days,”, “expression as described (Shevde et al., 2000)” for “expression”, “(3” for “(>3”

[5] = system: cyclin D1, cdc2, p21, p27, GADD45β, xIAP, Bfl-1/A1, Bcl-2, BclX1, cFLIP, survivin, c-myc, COX2; experiment: Western blot of cell cycle, anti-apoptotic, proliferative and metastatic gene products in U937 cells; format: cell-based, human; details: 10 μM
Method: Western blot analysis. Thirty to fifty micrograms of cytoplasmic, nuclear or whole cell protein was resolved on 10% SDS-PAGE gel, transferred to a nitrocellulose membrane, blocked with 5% non-fat milk, and probed with specific antibodies as per manufacturer's recommended protocol. The blots were washed, exposed to HRP-conjugated secondary antibodies for 1 h, and detected by ECL reagent (Amersham Pharmacia Biotechnology, Piscataway, N.J.). The bands were quantitated using a Personal Densitometer Scan v1.30 using Imagequant software version 3.3 (Molecular Dynamics).

[6] = system: STAT3; experiment: IL-6-inducible STAT3 phosphorylation in RPMI 8226 cells, Western blot; format: cell-based, human
Method: Western blot. For detection of STAT proteins, whole-cell extracts were prepared by lysing the guggulsterone-treated cells in lysis buffer (20 mM Tris, pH 7.4, 250 mM NaCl, 2 mM EDTA, pH 8.0, 0.1% Triton −X100, 0.01 mg/ml aprotinin, 0.005 mg/ml leupeptin, 0.4 mM PMSF, and 4 mM NaVO4). Lysates were then spun at 14,000 rpm for 10 min to remove insoluble material, and resolved on a 7.5% gel. After electrophoresis, the proteins were electrotransferred to a nitrocellulose membrane, blocked with 5% nonfat milk, and probed with anti-STAT antibodies (1:1000) overnight at 4° C. The blot was washed, exposed to HRP-conjugated secondary antibodies for 1 h, and finally examined by chemiluminescence (ECL, Amersham Pharmacia Biotech. Arlington Heights, Ill.).

CC=C1C(=O)C[C@H]2[C@@H]3CCC4=CC(=O)CC[C@]4(C)[C@H]3CC[C@]12C [guggulsterone, 4,17(20)-pregnadiene-3,16-dione]
TNF-induced IKK activation ([1]; 50 μM, 4 h, 0.1 nM TNF): completely suppressed this activation
expression of IKKα and IKKβ proteins ([1]; whole cell extracts, immunoblot): had no direct effect on the expression of either IKKα
TNF-induced COX-2, MMP-9 and VEGF expression ([2]; 4 h): abolished the TNF-induced expression of these gene products
TNF-induced cyclin D1 and c-myc expression ([2]; 4 hours): abolished the expression of these gene products
TNF-induced expression of cIAP1, xIAP, Bfl-1, BCL-2, TRAF1, cFLIP and survivin ([2]; 4 hours): this expression was inhibited
NF-κB-dependent SEAP expression induced by TNFR, TRADD, NIK and IKKβ plasmids ([3]; H1299, 50 μM, 4 hours): suppressed reporter gene expression induced by TNFR, TRADD, NIK and IKKβ plasmids
NF-κB-dependent SEAP expression induced by p65 plasmid ([3]; H1299, 50 μM, 4 hours): had no effect on that induced by p65
TNF-induced NF-κB-dependent SEAP expression ([3]; H1299 cells, 0.1 nM TNF 24 hours): inhibited by guggulsterone in a dose-dependent manner
number of RANKL-induced osteoclasts ([4]; 5 days, TRAP): the number of osteoclasts decreased with increasing concentration of GS
RANKL-induced osteoclastogenesis, GS added 24 h after RANKL ([4]; GS 5 μM, 5 days): inhibited osteoclastogenesis even when the cells were exposed 24 h after the RANKL treatment
RANKL-induced osteoclastogenesis, GS added 3 days after RANKL ([4]; GS 5 μM, 5 days): the inhibitory effect decreased significantly
RANKL-induced osteoclastogenesis (Example 1) ([4]; guggulsterone 5 μM, TRAP staining): inhibits RANKL-induced NF-κB activation and osteoclastogenesis
gene products involved in antiapoptosis (xIAP, Bfl-1/A1, Bcl-2, BclX1, cFLIP, survivin), proliferation (c-myc) and metastasis (COX2) [5]: inhibited the gene products involved in antiapoptosis
levels of cyclin D1 and cdc2 [5]: decrease in the levels of cyclin D1 and cdc2
levels of p21, p27 and GADD45β [5]: increase in the levels of cyclin dependent kinase inhibitor p21, p27
exposure time sufficient to completely suppress IL-6-induced STAT3 phosphorylation ([6]; 25 μM): 4 h
IL-6-induced STAT3 phosphorylation ([6]; 25 μM, IL-6 10 ng/ml 10 min): blocked by guggulsterone in a time-dependent manner
STAT3 phosphorylation by guggulsterone alone ([6]; data not shown): had no effect on STAT3 phosphorylation
